Assay: xn = mol fraction of the nth substance listed
Details: 363.15 K, Liquid, Vibrating tube method

CCCCCCCC [octane] + CCCO
Details | mass density [kg/m3]
5000 kPa, x2 = 0.3158 | 656.03
5000 kPa, x2 = 0.7301 | 691.49
5010 kPa, x2 = 0.1631 | 650.29
5010 kPa, x2 = 0.8823 | 716.99
5020 kPa, x2 = 0.4411 | 663.46
6000 kPa, x2 = 0.8823 | 718.21
6010 kPa, x2 = 0.1631 | 651.6
6010 kPa, x2 = 0.2111 | 653.06
6020 kPa, x2 = 0.3158 | 657.34
6020 kPa, x2 = 0.4411 | 664.8
6020 kPa, x2 = 0.7301 | 692.76
7000 kPa, x2 = 0.1631 | 652.93
7000 kPa, x2 = 0.3158 | 658.67
7000 kPa, x2 = 0.4411 | 666.13
7010 kPa, x2 = 0.2111 | 654.35
7020 kPa, x2 = 0.7301 | 694.08
7020 kPa, x2 = 0.8823 | 719.45
8000 kPa, x2 = 0.3158 | 660
8010 kPa, x2 = 0.1631 | 654.22
8010 kPa, x2 = 0.2111 | 655.68
8010 kPa, x2 = 0.8823 | 720.66
8020 kPa, x2 = 0.4411 | 667.45
8020 kPa, x2 = 0.7301 | 695.38
9000 kPa, x2 = 0.1631 | 655.49
9000 kPa, x2 = 0.8823 | 721.91
9010 kPa, x2 = 0.3158 | 661.3
9010 kPa, x2 = 0.4411 | 668.75
9010 kPa, x2 = 0.7301 | 696.66
9020 kPa, x2 = 0.2111 | 656.97
10000 kPa, x2 = 0.1631 | 656.77
10000 kPa, x2 = 0.4411 | 670.08
10010 kPa, x2 = 0.2111 | 658.25
10010 kPa, x2 = 0.8823 | 723.12
10020 kPa, x2 = 0.3158 | 662.62
10020 kPa, x2 = 0.7301 | 697.93
11000 kPa, x2 = 0.1631 | 658.05
11000 kPa, x2 = 0.4411 | 671.35
11010 kPa, x2 = 0.2111 | 659.52
11010 kPa, x2 = 0.3158 | 663.89
11010 kPa, x2 = 0.7301 | 699.17
11020 kPa, x2 = 0.8823 | 724.31
12000 kPa, x2 = 0.1631 | 659.27
12000 kPa, x2 = 0.8823 | 725.46
12010 kPa, x2 = 0.2111 | 660.8
12010 kPa, x2 = 0.3158 | 665.14
12020 kPa, x2 = 0.4411 | 672.6
12020 kPa, x2 = 0.7301 | 700.4
13000 kPa, x2 = 0.3158 | 666.41
13000 kPa, x2 = 0.4411 | 673.84
13000 kPa, x2 = 0.8823 | 726.58
13010 kPa, x2 = 0.1631 | 660.51
13010 kPa, x2 = 0.2111 | 662.01
13010 kPa, x2 = 0.7301 | 701.64
14010 kPa, x2 = 0.1631 | 661.7
14010 kPa, x2 = 0.2111 | 663.23
14010 kPa, x2 = 0.3158 | 667.62
14010 kPa, x2 = 0.7301 | 702.82
14020 kPa, x2 = 0.4411 | 675.08
14020 kPa, x2 = 0.8823 | 727.76
15000 kPa, x2 = 0.8823 | 728.85
15010 kPa, x2 = 0.1631 | 662.89
15010 kPa, x2 = 0.4411 | 676.25
15010 kPa, x2 = 0.7301 | 704
15020 kPa, x2 = 0.2111 | 664.4
15020 kPa, x2 = 0.3158 | 668.79
16000 kPa, x2 = 0.3158 | 669.98
16000 kPa, x2 = 0.8823 | 729.97
16010 kPa, x2 = 0.2111 | 665.57
16010 kPa, x2 = 0.7301 | 705.17
16020 kPa, x2 = 0.1631 | 664
16020 kPa, x2 = 0.4411 | 677.45
17000 kPa, x2 = 0.7301 | 706.32
17000 kPa, x2 = 0.8823 | 731.02
17010 kPa, x2 = 0.1631 | 665.15
17010 kPa, x2 = 0.3158 | 671.18
17010 kPa, x2 = 0.4411 | 678.56
17020 kPa, x2 = 0.2111 | 666.77
18000 kPa, x2 = 0.8823 | 732.11
18010 kPa, x2 = 0.3158 | 672.26
18010 kPa, x2 = 0.4411 | 679.72
18020 kPa, x2 = 0.1631 | 666.27
18020 kPa, x2 = 0.2111 | 667.86
18020 kPa, x2 = 0.7301 | 707.41
19000 kPa, x2 = 0.1631 | 667.34
19000 kPa, x2 = 0.4411 | 680.79
19000 kPa, x2 = 0.8823 | 733.13
19010 kPa, x2 = 0.2111 | 668.92
19010 kPa, x2 = 0.3158 | 673.36
19010 kPa, x2 = 0.7301 | 708.47
20010 kPa, x2 = 0.1631 | 668.36
20010 kPa, x2 = 0.2111 | 669.97
20010 kPa, x2 = 0.3158 | 674.4
20020 kPa, x2 = 0.4411 | 681.9
20020 kPa, x2 = 0.7301 | 709.58
20020 kPa, x2 = 0.8823 | 734.15
